System: patients undergoing coronary artery bypass graft (CABG) surgery
Experiment: Transmural and non-transmural myocardial infarction, CK-MB and CK release, clinical outcomes (Phase 2)
Assay type: in vivo, human
Conditions: for Number of patients developing transmural myocardial infarction (new Q-wave and CK-MB ≥ 50 I.U.): placebo 5 of 37; for Number of patients with non-transmural myocardial infarction (CK-MB ≥ 50 I.U.): placebo 17
Protocol: Creatinine phosphokinase MB band (CK-MB) was obtained every 8 hours for 48 hours and when indicated. Radio-nuclide ventriculography for ejection fraction and wall motion score was done about 14 days post-operation and as close to hospital discharge as possible. Other tests and measurements (e.g., chest x-ray, pulmonary artery wedge pressure (PCWP) were performed when clinically indicated for diagnosis or evaluation of myocardial infarction, or congestive heart failure. Timing and dose of all cardiovascular medications within 48 hours after surgery were recorded. The total dose of all analgesics during the 24-hour post-operative period was recorded. Fluid intake and output (e.g., blood replacement and urine output) were recorded for 48 hours. The type and duration of inotropic support and antiarrhythmic intervention required were recorded through 24 hours after surgery. Two-channel Holter recordings were obtained during 3 periods, the eight hours prior to intubation, from intubation through the end of surgery, and for an additional 24-48 hours after surgery. […] For the diagnosis of myocardial infarction, ECG tracings and CK-MB values were assessed centrally by observers blinded to treatment. The difficulty of weaning the patient from bypass, if any, was compared between placebo and treatment groups by noting need for one or more of the following: pacemaker, return to bypass, balloon pump or use of vasopressors. 4. Clinical Outcome. Outcomes of cardiac death, MI, CHF and life-threatening dysrhythmia were compared. Specific endpoints for analysis were combined into a dichotomous endpoint, i.e., at least one of the four events listed above occurs versus none occurs. Fisher's exact test for small samples was used to compare the rates of clinical outcome between the three treatment groups. […] Blood Chemistry--CPK, CK-MB, uric acid, glucose.

[1] = 0.05 mg/kg/min, n=41, ICU + 8 HR
[2] = 0.05 mg/kg/min, n=41, ICU + 16 HR
[3] = 0.05 mg/kg/min, n=41, ICU + 32 HR
[4] = 0.05 mg/kg/min, n=41, ICU + 40 HR
[5] = 0.05 mg/kg/min, n=41, ICU + 48 HR
[6] = 0.05 mg/kg/min, n=41, discharge
[7] = 0.10 mg/kg/min, n=35, ICU + 8 HR
[8] = 0.10 mg/kg/min, n=35, ICU + 16 HR
[9] = 0.10 mg/kg/min, n=35, ICU + 32 HR
[10] = 0.10 mg/kg/min, n=35, ICU + 40 HR
[11] = 0.10 mg/kg/min, n=35, ICU + 48 HR
[12] = 0.10 mg/kg/min, n=35, discharge

NC(=O)c1ncn([C@@H]2O[C@H](CO)[C@@H](O)[C@H]2O)c1N [AICA riboside, 5-amino-1-β-D-ribofuranosyl-imidazole-4-carboxamide]
CK, mean baseline (0.05 mg/kg/min group, n=41): 89.2 +/- 30.9 U/L | CK-MB, mean baseline (0.05 mg/kg/min group, n=41): 0.2 +/- 0.1 U/L | CK-MB, mean change from baseline (0.05 mg/kg/min, n=41, 24 HR POST): 23.5 +/- 5.0 U/L | CK, mean change from baseline (0.05 mg/kg/min, n=41, ICU + 0): 346.2 +/- 45.3 U/L | CK-MB, mean change from baseline (0.05 mg/kg/min, n=41, ICU + 0): 24.5 +/- 2.7 U/L | CK, mean change from baseline [1]: 839.2 +/- 89.3 U/L | CK-MB, mean change from baseline [1]: 37.1 +/- 5.1 U/L | CK, mean change from baseline [2]: 1040.6 +/- 120.3 U/L | CK-MB, mean change from baseline [2]: 30.8 +/- 4.9 U/L | CK, mean change from baseline [3]: 874.7 +/- 126.3 U/L | CK-MB, mean change from baseline [3]: 9.2 +/- 2.5 U/L | CK, mean change from baseline [4]: 806.6 +/- 145.6 U/L | CK-MB, mean change from baseline [4]: 7.7 +/- 2.2 U/L | CK, mean change from baseline [5]: 784.0 +/- 149.9 U/L | CK-MB, mean change from baseline [5]: 3.9 +/- 1.5 U/L | CK, mean change from baseline [6]: 87.8 +/- 46.6 U/L | CK-MB, mean change from baseline [6]: 0.0 +/- 0.1 U/L | Number of patients developing transmural myocardial infarction (new Q-wave and CK-MB ≥ 50 I.U.) (0.05 mg/kg/min, n=41, p=0.42): 2 patients | Number of patients with non-transmural myocardial infarction (CK-MB ≥ 50 I.U.) (0.05 mg/kg/min, n=41, p=0.10): 13 patients | Incidence of transmural myocardial infarction (0.05 mg/kg/min, n=41, placebo […], p=0.42): 4.9% | CK, mean baseline (0.10 mg/kg/min group, n=35): 66.6 +/- 11.3 U/L | CK-MB, mean baseline (0.10 mg/kg/min group, n=35): 0.1 +/- 0.1 U/L | CK-MB, mean change from baseline (0.10 mg/kg/min, n=35, 24 HR POST): 21.1 +/- 5.3 U/L | CK, mean change from baseline (0.10 mg/kg/min, n=35, ICU + 0): 386.1 +/- 51.8 U/L | CK-MB, mean change from baseline (0.10 mg/kg/min, n=35, ICU + 0): 25.2 +/- 2.3 U/L | CK, mean change from baseline [7]: 869.6 +/- 143.7 U/L | CK-MB, mean change from baseline [7]: 34.3 +/- 6.2 U/L | CK, mean change from baseline [8]: 891.0 +/- 148.3 U/L | CK-MB, mean change from baseline [8]: 25.9 +/- 6.7 U/L | CK, mean change from baseline [9]: 894.0 +/- 142.9 U/L | CK-MB, mean change from baseline [9]: 12.8 +/- 4.5 U/L | CK, mean change from baseline [10]: 641.7 +/- 119.7 U/L | CK-MB, mean change from baseline [10]: 7.1 +/- 3.0 U/L | CK, mean change from baseline [11]: 499.8 +/- 100.5 U/L | CK-MB, mean change from baseline [11]: 3.5 +/- 2.1 U/L | CK, mean change from baseline [12]: 31.9 +/- 22.0 U/L | CK-MB, mean change from baseline [12]: 0.4 +/- 0.4 U/L | Number of patients developing transmural myocardial infarction (new Q-wave and CK-MB ≥ 50 I.U.) (0.10 mg/kg/min, n=35, p=0.42): 2 patients | Non-transmural MI, combined treatment groups versus placebo (0.05 + 0.1 mg/kg/min combined, p=0.046): statistically significant | Number of patients with non-transmural myocardial infarction (CK-MB ≥ 50 I.U.) (high dose (0.1 mg/kg/min; Table 6 head prints 0.01), n=35, p=0.10): 8 patients | Incidence of non-transmural myocardial infarction (CK-MB ≥ 50 I.U.) (high dose (0.1 mg/kg/min; Table 6 head prints 0.01), n=35, placebo 47%, p=0.10): 23.5% | Rate of perioperative infarction, all drug-treated patients vs placebo (including first 5 which received higher doses, p<0.05): statistically significant reduction | Other outcomes (CHF requiring balloon pump or LVAD, cardiac death, life-threatening arrhythmia) (three groups, exception patient A39 (intra-aortic balloon pump)): none of the other outcomes being evaluated | Total CK levels compared with placebo; same trend for CK-MB release (treated groups, across all patients): trend toward a reduction in total CK levels in the treated groups compared with placebo | Reduction in the frequency of post-operative myocardial infarctions (treatment groups vs placebo, p=0.15, not significant): 64%
